Tests used:
[1] = Pharmacokinetics of capsule, suspension and tablets in dogs (Example 3); assay type: in vivo, dog; conditions: male dogs; for AUC(0-t) / AUC(0-inf) / Cmax / Tmax / half-life: dog, mean; for AUC(0-t): in vivo; for AUC(0-inf) / Cmax / Tmax / half-life: serum; for AUC0-∞/Dose / Cmax/Dose: dose-normalized mean
Method: The objective of this study was to compare the pharmacokinetic profile of several tablet formulations of grapiprant to capsule and aqueous methylcellulose suspension formulations of grapiprant with 20-mg doses. Appropriate amounts of the test article/excipient mixture were placed into gelatin capsules to provide each animal with 20 mg of grapiprant. As the grapiprant content in the excipient blend was 45% of the mixture weight, the total weight of the blend in each capsule was 0.0440 g. The weight tolerance was within ±0.005 g of the nominal capsule content weight.
For the aqueous suspensions (Group 2), the vehicle was 0.5% methyl cellulose (400 centipoise) in water. A 0.3-mg/mL suspension of grapiprant was prepared by adding grapiprant to a calibrated beaker and adding about 60-90% of the 0.5% aqueous methylcellulose to the beaker. A homogenizer was used to blend the material. A stir bar was added to the beaker, and the suspension was stirred for about 5 minutes. The stir bar was removed temporarily to adjust the volume with additional vehicle, and then the suspension was stirred for another 5 minutes before being transferred to a labeled dosing container. The formulation was continuously stirred at the time of dose administration.
Statistical analyses were conducted to determine differences in Cmax, Tmax, and AUCmax Values were normalized by mg/kg, and group means and standard deviations were calculated for numeric data. The actual administered doses ranged from 1.81 to 2.82 mg/kg, and averaged 2.2 mg/kg. No animal was found dead or deemed moribund during the study. All animals were normal at the scheduled observation time of 2 hours postdose.

dog EP4 receptors = dog EP4 receptors (Canis lupus familiaris, UniProt A0A8I3MI92); conditions: dog EP4 receptor; read-out: Ki, inhibition of [3H]PGE binding; cited from earlier work
Sequence of dog EP4 receptors (A0A8I3MI92 1-492): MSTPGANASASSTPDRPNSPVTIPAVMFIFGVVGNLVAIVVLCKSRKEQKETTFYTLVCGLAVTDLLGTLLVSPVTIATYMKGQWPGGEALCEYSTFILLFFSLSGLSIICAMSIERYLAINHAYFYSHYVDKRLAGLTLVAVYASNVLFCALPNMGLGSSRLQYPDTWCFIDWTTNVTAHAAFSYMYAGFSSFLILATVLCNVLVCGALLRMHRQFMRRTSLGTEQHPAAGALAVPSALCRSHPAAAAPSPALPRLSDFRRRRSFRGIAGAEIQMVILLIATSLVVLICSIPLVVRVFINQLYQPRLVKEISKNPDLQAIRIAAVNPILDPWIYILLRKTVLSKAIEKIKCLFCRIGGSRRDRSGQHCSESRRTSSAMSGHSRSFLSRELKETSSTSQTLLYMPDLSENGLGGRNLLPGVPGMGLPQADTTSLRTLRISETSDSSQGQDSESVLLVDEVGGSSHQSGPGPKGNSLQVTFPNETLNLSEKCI

[2] = Dose linearity and effect of feeding, PK in cats (Example 10); assay type: in vivo, cat; conditions: for Cmax / AUC(0-inf) / Tmax / half-life / AUC(0-t): serum, po
Method: Grapiprant was blended in a mixture of excipients as shown in Table 14 and administered orally by capsule to male and female cats.
The day of dosing was defined as Day 0. Following dosing, the animals were evaluated for clinical signs. Blood samples were collected prior to dosing and at 0.25, 0.5, 1, 2, 4, 8, 12, and 24-hours postdose. The blood samples were processed to serum and analyzed for grapiprant concentration. There were no test article-related clinical signs. The mean grapiprant pharmacokinetic results were as follow in Table 16.

[3] = Day 0, Group 1: single oral 20 mg API in capsule
[4] = Day 0, Group 2: single oral 2 mg/kg, 0.3 mg/mL methylcellulose suspension
[5] = Day 0, Group 1: 20 mg API in capsule
[6] = Day 0, Group 2: methylcellulose suspension

CCc1nc2c(C)nc(C)cc2n1-c1ccc(CCNC(=O)NS(=O)(=O)c2ccc(C)cc2)cc1 [grapiprant, N-{2-[4-(2-ethyl-4,6-dimethyl-1H-imidazo[4,5-c]pyridin-1-yl)phenyl]ethyl}-N′-[(4-methylphenyl)sulfonyl]urea]
AUC(0-t) [1, 3]: 1580 ng·h/mL
AUC(0-t) [1, 4]: 1650 ng·h/mL
AUC(0-inf) [1, 3]: 1640 ng·h/mL
Cmax [1, 3]: 804 ng/mL
Tmax [1, 3]: 1.08 h
half-life [1, 3]: 5.5 h
AUC(0-inf) [1, 4]: 1870 ng·h/mL
Cmax [1, 4]: 751 ng/mL
Tmax [1, 4]: 0.786 h
half-life [1, 4]: 4.1 h
AUC0-∞/Dose [1, 5]: 724 (hr*ng/mL)/(mg/kg)
Cmax/Dose [1, 5]: 359 (ng/mL)/(mg/kg)
AUC0-∞/Dose [1, 6]: 937 (hr*ng/mL)/(mg/kg)
Cmax/Dose [1, 6]: 376 (ng/mL)/(mg/kg)
Ki (dog EP4 receptors): 24.1 ± 2.7 nM
Cmax ([2]; both sexes, 2 mg/kg, Group 1 fed cats, single oral 2 mg/kg capsule, males and females, read-out: Mean Cmax): 327 to 407 ng/mL
AUC(0-inf) ([2]; both sexes, 2 mg/kg, Group 1 fed cats, single oral 2 mg/kg capsule, males and females, read-out: mean AUC0-∞): 1070 to 1220 ng·h/mL
Tmax ([2]; both sexes, 2 mg/kg, Group 1 fed cats, single oral 2 mg/kg capsule, males and females, read-out: mean Tmax): 1.33 to 1.65 h
half-life ([2]; both sexes, 2 mg/kg, Group 1 fed cats, single oral 2 mg/kg capsule, males and females, read-out: mean terminal half-life): 2.4 to 3.12 h
Cmax ([2]; both sexes, 2 mg/kg, Group 2 fasted cats, single oral 2 mg/kg capsule, males and females, read-out: Mean Cmax): 1100 to 1630 ng/mL
AUC(0-inf) ([2]; both sexes, 2 mg/kg, Group 2 fasted cats, single oral 2 mg/kg capsule, males and females, read-out: mean AUC0-∞): 1970 to 2850 ng·h/mL
Tmax ([2]; both sexes, 2 mg/kg, Group 2 fasted cats, single oral 2 mg/kg capsule, males and females, read-out: mean Tmax): 1.01 h
half-life ([2]; both sexes, 2 mg/kg, Group 2 fasted cats, single oral 2 mg/kg capsule, males and females, read-out: mean terminal half-life): 1.47 to 2.16 h
Cmax ([2]; both sexes, 6 mg/kg, Group 3 fasted cats, single oral 6 mg/kg capsule, males and females, read-out: Mean Cmax): 2970 to 3110 ng/mL
AUC(0-inf) ([2]; both sexes, 6 mg/kg, Group 3 fasted cats, single oral 6 mg/kg capsule, males and females, read-out: mean AUC0-∞): 3750 to 6350 ng·h/mL
Tmax ([2]; both sexes, 6 mg/kg, Group 3 fasted cats, single oral 6 mg/kg capsule, males and females, read-out: mean Tmax): 0.99 to 1.17 h
half-life ([2]; both sexes, 6 mg/kg, Group 3 fasted cats, single oral 6 mg/kg capsule, males and females, read-out: mean terminal half-life): 2.79 to 4.98 h
Cmax ([2]; both sexes, 10 mg/kg, Group 4 fasted cats, single oral 10 mg/kg capsule, males and females, read-out: Mean Cmax): 4280 to 7130 ng/mL
AUC(0-inf) ([2]; both sexes, 10 mg/kg, Group 4 fasted cats, single oral 10 mg/kg capsule, males and females, read-out: mean AUC0-∞): 7580 to 10900 ng·h/mL
Tmax ([2]; both sexes, 10 mg/kg, Group 4 fasted cats, single oral 10 mg/kg capsule, males and females, read-out: mean Tmax): 0.728 to 1.33 h
half-life ([2]; both sexes, 10 mg/kg, Group 4 fasted cats, single oral 10 mg/kg capsule, males and females, read-out: mean terminal half-life): 4.03 to 4.19 h
tolerability ([2]; cats, one-time oral capsule, 2 (fed and fasted), 6, and 10 mg/kg): well-tolerated with no test article-related clinical signs
dose linearity of exposure (AUC0-∞) ([2]; fasted cats, Groups 2-4, 2-10 mg/kg): roughly dose-linear but less than dose-proportional
AUC(0-t) ([2]; female, 2 mg/kg, cats, Group 1, 2 mg/kg capsule, Fed, Female, mean): 990 ng·h/mL
AUC(0-inf) ([2]; female, 2 mg/kg, cats, Group 1, 2 mg/kg capsule, Fed, Female, mean, read-out: AUC0-∞): 1070 ng·h/mL
Cmax ([2]; female, 2 mg/kg, cats, Group 1, 2 mg/kg capsule, Fed, Female, mean, read-out: Cmax): 327 ng/mL
Tmax ([2]; female, 2 mg/kg, cats, Group 1, 2 mg/kg capsule, Fed, Female, mean, read-out: Tmax): 1.33 h
half-life ([2]; female, 2 mg/kg, cats, Group 1, 2 mg/kg capsule, Fed, Female, mean, read-out: t1/2 (converted)): 2.4 h
AUC(0-t) ([2]; female, 2 mg/kg, cats, Group 2, 2 mg/kg capsule, Fasted, Female, mean): 2780 ng·h/mL
AUC(0-inf) ([2]; female, 2 mg/kg, cats, Group 2, 2 mg/kg capsule, Fasted, Female, mean, read-out: AUC0-∞): 2850 ng·h/mL
Cmax ([2]; female, 2 mg/kg, cats, Group 2, 2 mg/kg capsule, Fasted, Female, mean, read-out: Cmax): 1630 ng/mL
Tmax ([2]; female, 2 mg/kg, cats, Group 2, 2 mg/kg capsule, Fasted, Female, mean, read-out: Tmax): 1.01 h
half-life ([2]; female, 2 mg/kg, cats, Group 2, 2 mg/kg capsule, Fasted, Female, mean, read-out: t1/2 (converted)): 1.47 h
AUC(0-t) ([2]; female, 6 mg/kg, cats, Group 3, 6 mg/kg capsule, Fasted, Female, mean): 6130 ng·h/mL
AUC(0-inf) ([2]; female, 6 mg/kg, cats, Group 3, 6 mg/kg capsule, Fasted, Female, mean, read-out: AUC0-∞): 6350 ng·h/mL
Cmax ([2]; female, 6 mg/kg, cats, Group 3, 6 mg/kg capsule, Fasted, Female, mean, read-out: Cmax): 3110 ng/mL
Tmax ([2]; female, 6 mg/kg, cats, Group 3, 6 mg/kg capsule, Fasted, Female, mean, read-out: Tmax): 1.17 h
half-life ([2]; female, 6 mg/kg, cats, Group 3, 6 mg/kg capsule, Fasted, Female, mean, read-out: t1/2 (converted)): 4.98 h
AUC(0-t) ([2]; female, 10 mg/kg, cats, Group 4, 10 mg/kg capsule, Fasted, Female, mean): 10700 ng·h/mL
AUC(0-inf) ([2]; female, 10 mg/kg, cats, Group 4, 10 mg/kg capsule, Fasted, Female, mean, read-out: AUC0-∞): 10900 ng·h/mL
Cmax ([2]; female, 10 mg/kg, cats, Group 4, 10 mg/kg capsule, Fasted, Female, mean, read-out: Cmax): 7130 ng/mL
Tmax ([2]; female, 10 mg/kg, cats, Group 4, 10 mg/kg capsule, Fasted, Female, mean, read-out: Tmax): 0.73 h
half-life ([2]; female, 10 mg/kg, cats, Group 4, 10 mg/kg capsule, Fasted, Female, mean, read-out: t1/2 (converted)): 4.19 h
AUC(0-t) ([2]; male, 2 mg/kg, cats, Group 1, 2 mg/kg capsule, Fed, Male, mean): 1030 ng·h/mL
AUC(0-inf) ([2]; male, 2 mg/kg, cats, Group 1, 2 mg/kg capsule, Fed, Male, mean, read-out: AUC0-∞): 1220 ng·h/mL
Cmax ([2]; male, 2 mg/kg, cats, Group 1, 2 mg/kg capsule, Fed, Male, mean, read-out: Cmax): 407 ng/mL
Tmax ([2]; male, 2 mg/kg, cats, Group 1, 2 mg/kg capsule, Fed, Male, mean, read-out: Tmax): 1.65 h
half-life ([2]; male, 2 mg/kg, cats, Group 1, 2 mg/kg capsule, Fed, Male, mean, read-out: t1/2 (converted)): 3.12 h
AUC(0-t) ([2]; male, 2 mg/kg, cats, Group 2, 2 mg/kg capsule, Fasted, Male, mean): 2290 ng·h/mL
AUC(0-inf) ([2]; male, 2 mg/kg, cats, Group 2, 2 mg/kg capsule, Fasted, Male, mean, read-out: AUC0-∞): 1970 ng·h/mL
Cmax ([2]; male, 2 mg/kg, cats, Group 2, 2 mg/kg capsule, Fasted, Male, mean, read-out: Cmax): 1100 ng/mL
Tmax ([2]; male, 2 mg/kg, cats, Group 2, 2 mg/kg capsule, Fasted, Male, mean, read-out: Tmax): 1.01 h
half-life ([2]; male, 2 mg/kg, cats, Group 2, 2 mg/kg capsule, Fasted, Male, mean, read-out: t1/2 (converted)): 2.16 h
AUC(0-t) ([2]; male, 6 mg/kg, cats, Group 3, 6 mg/kg capsule, Fasted, Male, mean): 3650 ng·h/mL
AUC(0-inf) ([2]; male, 6 mg/kg, cats, Group 3, 6 mg/kg capsule, Fasted, Male, mean, read-out: AUC0-∞): 3750 ng·h/mL
Cmax ([2]; male, 6 mg/kg, cats, Group 3, 6 mg/kg capsule, Fasted, Male, mean, read-out: Cmax): 2970 ng/mL
Tmax ([2]; male, 6 mg/kg, cats, Group 3, 6 mg/kg capsule, Fasted, Male, mean, read-out: Tmax): 0.99 h
half-life ([2]; male, 6 mg/kg, cats, Group 3, 6 mg/kg capsule, Fasted, Male, mean, read-out: t1/2 (converted)): 2.79 h
AUC(0-t) ([2]; male, 10 mg/kg, cats, Group 4, 10 mg/kg capsule, Fasted, Male, mean): 7430 ng·h/mL
AUC(0-inf) ([2]; male, 10 mg/kg, cats, Group 4, 10 mg/kg capsule, Fasted, Male, mean, read-out: AUC0-∞): 7580 ng·h/mL
Cmax ([2]; male, 10 mg/kg, cats, Group 4, 10 mg/kg capsule, Fasted, Male, mean, read-out: Cmax): 4280 ng/mL
Tmax ([2]; male, 10 mg/kg, cats, Group 4, 10 mg/kg capsule, Fasted, Male, mean, read-out: Tmax): 1.33 h
half-life ([2]; male, 10 mg/kg, cats, Group 4, 10 mg/kg capsule, Fasted, Male, mean, read-out: t1/2 (converted)): 4.03 h

Reference: patent publication US12109218B2, “Compositions of grapiprant and methods for using the same” (ARATANA THERAPEUTICS, INC., priority 2014, dated 2024)
